Measured values: US8729081B2, “Compositions and methods for treating alcohol use disorders, pain and other diseases” (VM Discovery Inc., priority 2008, dated 2014)
pIC50: −log10 of the molar value.

How the values were obtained:
Assay type in all cases: biochemical
PKCε (h) = biological target: T1, PKCε (h) (Homo sapiens, UniProt Q02156); assay: In vitro PKCε kinase assay (radiometric, [γ-33P-ATP], HotSpot); conditions: recombinant human PKCε, 10 μM ATP; read-out: IC50 in antagonizing the PKCε
T1 construct: host or cells: insect cells
T1 sequence (Q02156 1-737): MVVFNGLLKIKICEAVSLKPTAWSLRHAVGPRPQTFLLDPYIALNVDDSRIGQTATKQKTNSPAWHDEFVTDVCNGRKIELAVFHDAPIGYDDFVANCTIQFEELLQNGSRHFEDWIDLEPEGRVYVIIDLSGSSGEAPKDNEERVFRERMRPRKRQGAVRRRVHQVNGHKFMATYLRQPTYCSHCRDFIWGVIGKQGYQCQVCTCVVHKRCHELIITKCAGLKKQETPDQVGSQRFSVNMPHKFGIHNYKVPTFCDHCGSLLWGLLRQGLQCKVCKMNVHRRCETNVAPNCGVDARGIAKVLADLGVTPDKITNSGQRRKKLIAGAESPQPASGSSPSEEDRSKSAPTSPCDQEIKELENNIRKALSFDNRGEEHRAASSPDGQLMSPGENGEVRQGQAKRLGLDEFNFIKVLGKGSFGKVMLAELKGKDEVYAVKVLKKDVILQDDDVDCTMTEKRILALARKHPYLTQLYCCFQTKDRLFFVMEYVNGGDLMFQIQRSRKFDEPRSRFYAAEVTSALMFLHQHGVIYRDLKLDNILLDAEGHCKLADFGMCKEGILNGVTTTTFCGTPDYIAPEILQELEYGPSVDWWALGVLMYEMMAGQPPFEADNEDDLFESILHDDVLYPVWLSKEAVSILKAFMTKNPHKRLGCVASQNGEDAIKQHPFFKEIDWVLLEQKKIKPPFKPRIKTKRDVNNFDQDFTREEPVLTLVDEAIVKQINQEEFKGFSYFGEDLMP
Experimental: There are many in vitro commercially available and validated bioassays (Ma, H., et al, Expert Opin Drug Discov. 2008 June; 3(6): 607-621 and references therein) which can be used to characterize the activities of compounds of the present invention against PKCε protein kinase. Compounds can be tested against the activity of recombinant PKCε. In a final reaction volume of 25 μL, PKCε (h) (0.4 nM, Human recombinant protein expressed in insect cells. Mw=83.7 kDa) is incubated with kinase buffer (20 mM HEPES-HCl, pH 7.5, 10 mM MgCl2, 1 mM EGTA, 0.02% Brij35, 0.1 mM Na3VO4, 0.02 mg/ml BSA, 2 mM DTT, and 1% DMSO), 0.1 mg/mL phosphatidylserine, 10 μg/mL diacylglycerol, 20 μM S25-PKC peptide substrate (RFARKGSLRQKNV-OH, Mw=1561 Da), 10 mM MgAcetate and 10 μM [γ-33P-ATP] (specific activity approx. 500 cpm/pmol). The reaction is initiated by the addition of the MgATP mix. After incubation for 40 minutes at room temperature, the reaction is stopped by the addition of 5 μL of a 3% phosphoric acid solution. 10 μL of the reaction is then spotted onto a P30 filtermat and washed three times for 5 minutes in 75 mM phosphoric acid and once in methanol prior to drying and scintillation counting Control samples are incubated without inhibitor to measure maximal activity or with the general kinase inhibitor Staurosporine (5 μM) to measure complete inhibition. For each compound the % inhibition can be calculated by the formula, or by curve fits: % Inhibition=(Max activity−Activity with compound)/(Max activity−Activity with Control)*100. Compounds with inhibitory activity are assayed using at least 5 concentrations (1 nM-300 μM). Concentrations are adjusted to generate a complete dose-response curve. Each sample is assayed in duplicate and each experiment is repeated three times. Results are fitted by non-linear regression analysis to a sigmoidal dose-response curve with variable slope to calculate Hill slope, log IC50 and Imax values for each inhibitor, using the program Prism 5 (GraphPad Software, Inc., San Diego, Calif.).
(§1) Kinase profiling was performed using HotSpot technology (Reaction Biology Corp. 11 Malvern, Pa., USA). This technology is a radioisotope-based P81 filter-binding assay. Compound of the present invention were dissolved in pure DMSO to make a 10 mM stock, then diluted in pure DMSO to make a serial dilution based on the IC50 ranges. PKCε (h) (0.4 nM, human recombinant protein expressed in insect cells. Mw=83.7 kDa) and substrate (20 μM peptide substrate, [RFARKGSLRQKNV]) were diluted in the reaction buffer (20 mM HEPES-HCl, pH 7.5, 10 mM MgCl2, 1 mM EGTA, 0.02% Brij35, 0.1 mM Na3VO4, 0.02 mg/ml BSA, 2 mM DTT, and 1% DMSO), and then 5 nL of compound was delivered into PKCε (h) and substrate mixture by acoustic technology using Echo 550 (LabCyte Inc., Sunnyvale, Calif.). The reaction was initiated by the addition of [γ-33P-ATP] into the reaction mixture (final concentration was 10 μM) and stopped after at least 40 min incubation at room temperature. The unreacted free 33P-ATP was washed away before detection.
The intrinsic PKCε antagonist activity of a compound which may be used in the present invention may be determined by these assays. […] Such a result is indicative of the intrinsic activity of the compounds in use as antagonists of PKCε.

ROCK1 = biological target: T2, ROCK1 (Homo sapiens, UniProt Q13464); assay: Kinase profiling
T2 construct: purchased Reaction Biology Corp
Experimental: [The procedure below names another target; the source lists this target under the same test.] as §1

PKCgamma = biological target: T3, PKCgamma (Homo sapiens, UniProt P05129); assay: Kinase profiling
T3 construct: purchased Reaction Biology Corp
Experimental: [The procedure below names another target; the source lists this target under the same test.] as §1

PKCiota = biological target: T4, PKCiota (Homo sapiens, UniProt P41743); assay: Kinase profiling
T4 construct: purchased Reaction Biology Corp
Experimental: [The procedure below names another target; the source lists this target under the same test.] as §1

PKCeta = biological target: T5, PKCeta (Homo sapiens, UniProt P24723); assay: Kinase profiling
T5 construct: purchased Reaction Biology Corp
Experimental: [The procedure below names another target; the source lists this target under the same test.] as §1

PKCdelta = biological target: T6, PKCdelta (Homo sapiens, UniProt Q05655); assay: Kinase profiling
T6 construct: purchased Reaction Biology Corp
Experimental: [The procedure below names another target; the source lists this target under the same test.] as §1

TrkA = biological target: T7, TrkA (Homo sapiens, UniProt P04629); assay: Kinase profiling
T7 construct: purchased Reaction Biology Corp
Experimental: [The procedure below names another target; the source lists this target under the same test.] as §1

PKCbeta1 = biological target: T8, PKCbeta1 (Homo sapiens, UniProt P05771); assay: Kinase profiling
T8 construct: purchased Reaction Biology Corp
Experimental: [The procedure below names another target; the source lists this target under the same test.] as §1

PDPK1 = biological target: T9, PDPK1 (Homo sapiens, UniProt O15530); assay: Kinase profiling
T9 construct: purchased Reaction Biology Corp
Experimental: [The procedure below names another target; the source lists this target under the same test.] as §1

CAMKIIa_alpha = biological target: T10, CAMKIIa_alpha (Homo sapiens, UniProt Q9UQM7); assay: Kinase profiling
T10 construct: purchased Reaction Biology Corp
Experimental: [The procedure below names another target; the source lists this target under the same test.] as §1

MEK1 = biological target: T11, MEK1 (Homo sapiens, UniProt Q02750); assay: Kinase profiling
T11 construct: purchased Reaction Biology Corp
Experimental: [The procedure below names another target; the source lists this target under the same test.] as §1

PKCtheta = biological target: T12, PKCtheta (Homo sapiens, UniProt Q04759); assay: Kinase profiling
T12 construct: purchased Reaction Biology Corp
Experimental: [The procedure below names another target; the source lists this target under the same test.] as §1

PKCmu = biological target: T13, PKCmu (Homo sapiens, UniProt Q15139); assay: Kinase profiling
T13 construct: purchased Reaction Biology Corp
Experimental: [The procedure below names another target; the source lists this target under the same test.] as §1

T13 sequence (Q15139 whole entry): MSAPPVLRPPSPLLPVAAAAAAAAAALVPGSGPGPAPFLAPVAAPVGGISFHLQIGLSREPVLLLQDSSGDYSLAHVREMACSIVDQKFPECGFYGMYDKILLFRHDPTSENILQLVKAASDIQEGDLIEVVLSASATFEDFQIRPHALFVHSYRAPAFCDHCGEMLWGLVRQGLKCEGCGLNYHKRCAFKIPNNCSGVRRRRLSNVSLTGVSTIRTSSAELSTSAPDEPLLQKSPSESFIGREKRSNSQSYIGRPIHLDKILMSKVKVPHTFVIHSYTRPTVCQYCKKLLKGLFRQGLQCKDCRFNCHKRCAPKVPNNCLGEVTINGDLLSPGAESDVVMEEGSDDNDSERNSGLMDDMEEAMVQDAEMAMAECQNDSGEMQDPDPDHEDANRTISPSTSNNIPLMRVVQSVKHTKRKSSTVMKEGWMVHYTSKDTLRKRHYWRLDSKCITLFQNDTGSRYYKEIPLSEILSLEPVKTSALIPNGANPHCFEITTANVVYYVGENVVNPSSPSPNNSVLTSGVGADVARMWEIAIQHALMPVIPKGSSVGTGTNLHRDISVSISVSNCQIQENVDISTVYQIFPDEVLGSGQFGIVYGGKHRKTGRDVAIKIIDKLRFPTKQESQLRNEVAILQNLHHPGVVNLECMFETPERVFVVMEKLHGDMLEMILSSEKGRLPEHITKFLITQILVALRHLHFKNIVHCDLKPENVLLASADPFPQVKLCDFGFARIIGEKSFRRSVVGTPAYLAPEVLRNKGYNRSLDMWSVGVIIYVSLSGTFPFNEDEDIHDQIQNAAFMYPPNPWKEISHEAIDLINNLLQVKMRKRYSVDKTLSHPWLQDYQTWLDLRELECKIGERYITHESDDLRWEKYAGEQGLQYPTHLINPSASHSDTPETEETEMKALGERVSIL
T6 sequence (Q05655 whole entry): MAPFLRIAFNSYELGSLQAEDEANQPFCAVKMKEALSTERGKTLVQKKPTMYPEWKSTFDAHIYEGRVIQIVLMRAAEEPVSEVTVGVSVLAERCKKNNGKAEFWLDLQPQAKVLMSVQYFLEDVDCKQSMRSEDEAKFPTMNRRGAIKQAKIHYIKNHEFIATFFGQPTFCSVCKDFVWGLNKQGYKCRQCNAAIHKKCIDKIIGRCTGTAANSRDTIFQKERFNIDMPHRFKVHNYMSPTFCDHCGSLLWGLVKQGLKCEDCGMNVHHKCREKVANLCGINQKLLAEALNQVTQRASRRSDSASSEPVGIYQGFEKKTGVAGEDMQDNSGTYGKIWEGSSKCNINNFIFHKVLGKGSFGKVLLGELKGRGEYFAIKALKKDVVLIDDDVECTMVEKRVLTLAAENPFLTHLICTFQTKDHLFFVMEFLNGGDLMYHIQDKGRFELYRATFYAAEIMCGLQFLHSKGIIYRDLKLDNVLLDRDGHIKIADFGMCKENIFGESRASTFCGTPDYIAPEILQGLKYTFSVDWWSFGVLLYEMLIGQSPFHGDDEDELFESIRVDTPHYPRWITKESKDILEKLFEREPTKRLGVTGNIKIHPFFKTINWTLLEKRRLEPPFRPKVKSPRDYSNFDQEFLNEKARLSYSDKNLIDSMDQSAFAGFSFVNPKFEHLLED
T2 sequence (Q13464 whole entry): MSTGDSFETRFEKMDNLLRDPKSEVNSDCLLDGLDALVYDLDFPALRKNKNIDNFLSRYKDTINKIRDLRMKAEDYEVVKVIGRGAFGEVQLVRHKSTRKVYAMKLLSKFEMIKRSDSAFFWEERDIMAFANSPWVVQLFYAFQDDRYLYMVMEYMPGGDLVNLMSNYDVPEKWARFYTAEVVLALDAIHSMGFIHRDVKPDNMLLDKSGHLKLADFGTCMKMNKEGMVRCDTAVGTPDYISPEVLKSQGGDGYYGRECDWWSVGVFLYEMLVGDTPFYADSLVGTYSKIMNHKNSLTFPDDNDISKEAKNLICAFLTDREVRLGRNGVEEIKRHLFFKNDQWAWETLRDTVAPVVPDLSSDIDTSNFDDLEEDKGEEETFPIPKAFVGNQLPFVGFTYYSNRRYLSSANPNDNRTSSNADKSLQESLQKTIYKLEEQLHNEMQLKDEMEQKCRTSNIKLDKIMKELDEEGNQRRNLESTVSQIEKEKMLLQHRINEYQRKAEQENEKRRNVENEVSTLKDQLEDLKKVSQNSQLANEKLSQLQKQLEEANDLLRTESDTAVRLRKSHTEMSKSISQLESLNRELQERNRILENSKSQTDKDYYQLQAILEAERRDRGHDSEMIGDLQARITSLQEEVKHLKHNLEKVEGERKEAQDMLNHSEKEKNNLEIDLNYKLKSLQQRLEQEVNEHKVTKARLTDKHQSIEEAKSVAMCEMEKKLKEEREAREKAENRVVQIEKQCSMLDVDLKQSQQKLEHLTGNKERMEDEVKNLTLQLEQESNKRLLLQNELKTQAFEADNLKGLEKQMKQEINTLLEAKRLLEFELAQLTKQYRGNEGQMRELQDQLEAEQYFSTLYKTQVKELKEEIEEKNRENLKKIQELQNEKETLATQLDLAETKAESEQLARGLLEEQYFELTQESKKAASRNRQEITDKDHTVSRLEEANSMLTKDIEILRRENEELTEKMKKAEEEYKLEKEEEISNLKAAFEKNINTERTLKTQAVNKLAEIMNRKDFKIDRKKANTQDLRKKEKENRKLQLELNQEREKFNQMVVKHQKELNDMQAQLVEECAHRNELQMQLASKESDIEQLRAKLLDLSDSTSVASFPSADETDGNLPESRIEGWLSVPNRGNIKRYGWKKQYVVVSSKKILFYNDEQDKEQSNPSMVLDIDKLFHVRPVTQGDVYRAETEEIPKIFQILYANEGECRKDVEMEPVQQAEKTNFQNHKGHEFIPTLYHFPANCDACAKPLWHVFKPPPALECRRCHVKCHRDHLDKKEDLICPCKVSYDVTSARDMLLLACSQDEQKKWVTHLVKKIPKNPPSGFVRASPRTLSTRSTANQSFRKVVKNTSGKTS
T9 sequence (O15530 whole entry): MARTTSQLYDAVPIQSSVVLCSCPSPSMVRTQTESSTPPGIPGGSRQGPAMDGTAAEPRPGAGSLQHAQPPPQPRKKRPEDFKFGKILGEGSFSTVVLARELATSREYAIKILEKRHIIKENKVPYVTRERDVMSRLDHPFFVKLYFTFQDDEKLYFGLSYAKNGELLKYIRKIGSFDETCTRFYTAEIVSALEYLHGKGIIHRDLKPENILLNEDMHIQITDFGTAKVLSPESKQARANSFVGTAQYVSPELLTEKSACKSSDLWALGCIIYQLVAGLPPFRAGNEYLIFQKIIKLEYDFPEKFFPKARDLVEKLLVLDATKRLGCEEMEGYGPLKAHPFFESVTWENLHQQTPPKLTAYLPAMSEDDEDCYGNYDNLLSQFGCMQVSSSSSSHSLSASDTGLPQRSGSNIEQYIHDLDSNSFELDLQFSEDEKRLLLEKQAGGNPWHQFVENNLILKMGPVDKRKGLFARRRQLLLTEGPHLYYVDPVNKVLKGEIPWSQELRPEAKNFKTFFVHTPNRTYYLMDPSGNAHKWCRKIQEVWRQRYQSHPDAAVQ
T8 sequence (P05771 whole entry): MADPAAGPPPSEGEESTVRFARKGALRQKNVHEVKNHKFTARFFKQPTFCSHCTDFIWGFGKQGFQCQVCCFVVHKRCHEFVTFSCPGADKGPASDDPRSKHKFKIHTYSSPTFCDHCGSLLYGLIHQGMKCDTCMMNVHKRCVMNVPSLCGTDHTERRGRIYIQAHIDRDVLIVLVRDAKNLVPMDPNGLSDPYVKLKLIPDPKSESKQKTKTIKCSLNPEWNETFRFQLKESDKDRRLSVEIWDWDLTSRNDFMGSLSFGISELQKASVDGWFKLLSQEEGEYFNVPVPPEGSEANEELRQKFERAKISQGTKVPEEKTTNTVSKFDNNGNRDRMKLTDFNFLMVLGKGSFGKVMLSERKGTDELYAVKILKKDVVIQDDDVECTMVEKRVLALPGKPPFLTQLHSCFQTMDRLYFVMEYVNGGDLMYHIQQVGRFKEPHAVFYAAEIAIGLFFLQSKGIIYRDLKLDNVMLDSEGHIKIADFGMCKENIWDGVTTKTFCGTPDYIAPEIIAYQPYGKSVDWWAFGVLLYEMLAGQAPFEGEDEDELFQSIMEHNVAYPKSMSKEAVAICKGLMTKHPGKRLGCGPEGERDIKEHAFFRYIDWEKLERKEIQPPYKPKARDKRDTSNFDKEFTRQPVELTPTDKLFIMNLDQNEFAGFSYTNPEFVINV

pIC50 (PKCε (h)): 6.00 to 8.00 | pIC50 (ROCK1): < 4.70 | pIC50 (PKCgamma): < 4.70 | pIC50 (PKCiota): < 4.70 | pIC50 (PKCeta): < 4.70 | pIC50 (PKCdelta): < 4.70 | pIC50 (TrkA): < 4.70 | pIC50 (PKCbeta1): < 4.70 | pIC50 (PDPK1): < 4.70 | pIC50 (CAMKIIa_alpha): < 4.70 | pIC50 (MEK1): < 4.70 | pIC50 (PKCtheta): < 4.70 | pIC50 (PKCmu): < 4.70
Compound: O=C(NCCCN1CCCC1)c1ccc(/C=C2\Sc3ccccc3N(Cc3ccccc3F)C2=O)cc1 [Compound 481, 4-{(Z/E)-[4-(2-fluorobenzyl)-3-oxo-3,4-dihydro-2H-1,4-benzothiazin-2-ylidene]methyl}-N-[3-(pyrrolidin-1-yl)propyl]benzamide]
